The values that follow come from patent US12331312B2, “Deterministic culturing of single cells” (Purdue Research Foundation, priority 2020, dated 2025).

For the experiment, the system named is MCF7 tumors. As to the kind of experiment: Paclitaxel treatment of single-cell-derived MCF7 tumors on collagen islands; apoptosis counted by Hoechst nuclear morphology. It is filed as cell-based. On the procedure: Hoechst staining was used to visualize cells in the tumor using fluorescence microscopy (FIG. 4). Specifically, cells were washed in PBS and fixed in 4% paraformaldehyde before staining with 1:1000 PBS diluted solution of 20 mM Hoechst 33342 (Thermo Fischer Scientific, Waltham, MA) for 10 minutes. After washing once with PBS, tumors were imaged with a ZEISS LSM 800 confocal microscope with an excitation laser of 401 nm wavelength and with 10× magnification lens (EC Plan-Neofluar® 10×/0.30 M27). Bright-field and fluorescence images were also obtained using NIKON ECLIPSE® 80i upright fluorescence microscope, which were used to analyze the morphology of the tumors with ImageJ. […]
For each tumor, dead and live nuclei at every alternate plane of the z-stack were manually counted using Fiji cell counting software. […]
Since each island comprises a relatively small amount of collagen (e.g. as opposed to an entire well of a 96-well plate), excess dye that inadvertently diffuses into the collagen can be washed easily to reduce any background fluorescence signal. Live and dead cells (the latter indicated by smaller or fragmented nuclei with intense staining due to DNA condensation) from individual planes of z-stack confocal images of each tumor were manually counted according to a procedure described by Crowley et al. (see, e.g., Crowley et al., Cold Spring Harb. Protoc. pdb.prot087205 2016). […]

Turning to `CC(=O)O[C@H]1C(=O)[C@@]2(C)[C@H]([C@H](OC(=O)c3ccccc3)[C@]3(O)C[C@H](OC(=O)[C@H](O)[C@@H](NC(=O)c4ccccc4)c4ccccc4)C(C)=C1C3(C)C)[C@]1(OC(C)=O)CO[C@@H]1C[C@@H]2O` [Paclitaxel], the “average cell death (percentage of apoptotic cells)” value (13-day old MCF7 tumors, Paclitaxel 5 nM, 20 nM and 100 nM for 24 hours, Hoechst 33342 nuclear morphology) was “increased with drug concentration”. Under “each drug concentration (5, 20, 100 nM), 24 hours”, the “variation in the response of individual tumors” value is “significant variation in the response of individual tumors for each drug concentration”.
